Legend:
type 1 PrP^Sc [1] = biological target: T1, type 1 PrP^Sc (Homo sapiens, UniProt P04156); type: biochemical; details: FIGS. 3e and f; for ability of selective chelator to mirror the EDTA action on type 1 PrP^Sc cleavage: 20 mM chelator, N-ethylmorpholine buffer; for cleavage pattern of type 1 PrP^Sc digested in presence of copper-selective chelator: 20 mM, intermediate between type 1 and type 2^-
type 1 PrP^Sc [2] = biological target: T1, type 1 PrP^Sc; details: for effectiveness in maintaining type 1 PrP^Sc conformation: 30 μM metal ion; for effect of metal ion on electrophoretic mobility of metal-depleted, proteinase K digested type 1 PrP^Sc: exposure prior to and during electrophoresis, FIG. 4b; for digestion products of type 1 PrP^Sc washed in maintained presence of metal ion: total concentrations observed in serum, FIG. 4a; for concentration at which type 1 PrP^Sc conformation could be readily maintained: washing before PK digestion
amyloid Aβ protein = details: cited from earlier work
type 2 PrP^Sc = type 2 PrP^Sc (Homo sapiens, UniProt P04156); details: different concentrations; FIG. 4d
[3] = biological target: recombinant full length hamster PrP (Mesocricetus auratus, UniProt P04273); details: read-out: dissociation constant of Cu^2+ binding; cited from earlier work
Sequence of recombinant full length hamster PrP (P04273 23-254 limits assumed): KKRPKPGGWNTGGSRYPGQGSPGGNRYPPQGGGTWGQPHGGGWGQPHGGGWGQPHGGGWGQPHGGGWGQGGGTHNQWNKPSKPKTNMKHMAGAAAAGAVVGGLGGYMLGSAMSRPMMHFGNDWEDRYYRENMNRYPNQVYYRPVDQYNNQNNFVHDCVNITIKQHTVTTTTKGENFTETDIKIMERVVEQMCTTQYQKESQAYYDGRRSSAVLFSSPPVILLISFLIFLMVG

c1cnc2c(c1)ccc1cccnc12 [1, 10 phenanthroline]
ability of selective chelator to mirror the EDTA action on type 1 PrP^Sc cleavage (type 1 PrP^Sc [1]): unable to precisely mirror this action

[Cl-].[Cl-].[Co+2] [Co^2+]
effectiveness in maintaining type 1 PrP^Sc conformation (type 1 PrP^Sc [2]; FIG. 4c): only Ni^2+ can effectively substitute | cleavage pattern of type 1 PrP^Sc after washing and digestion with Co^2+ (type 1 PrP^Sc [2]; 30 μM, FIG. 4c): intermediate pattern | induction of aggregation of Aβ protein (amyloid Aβ protein): also effective

O=S(=O)([O-])[O-].[Cu+2] [Cu^2+]
cleavage pattern of type 1 PrP^Sc after washing and digestion with Cu^2+ (type 1 PrP^Sc [2]; 20 μM of range 10-25 μM, FIG. 4a lanes 6-8): migrated with a mobility similar to that of the type 2 products | effect of metal ion on electrophoretic mobility of metal-depleted, proteinase K digested type 1 PrP^Sc (type 1 PrP^Sc [2]): had no effect | digestion products of type 1 PrP^Sc washed in maintained presence of metal ion (type 1 PrP^Sc [2]): digestion products closely resembled those generated from untreated type 1 PrP^Sc | concentration at which type 1 PrP^Sc conformation could be readily maintained (type 1 PrP^Sc [2]): higher concentrations of Cu^2+ were required | digestion products of type 2 PrP^Sc washed in maintained presence of metal ion (type 2 PrP^Sc): either the original type 2 pattern of digestion products, or a new pattern of higher molecular mass cleavage fragments closely similar to those generated from untreated type 1 PrP^Sc | Kd [3]: 14 µM | induction of aggregation of Aβ protein (amyloid Aβ protein): able to induce aggregation of Aβ protein

O=C(O)CN(CCOCCOCCN(CC(=O)O)CC(=O)O)CC(=O)O [EGTA]
ability of selective chelator to mirror the EDTA action on type 1 PrP^Sc cleavage (type 1 PrP^Sc [1]): unable to precisely mirror this action | cleavage pattern of type 1 PrP^Sc digested in presence of copper-selective chelator (type 1 PrP^Sc [1]): intermediate pattern

[Cl][Mn][Cl] [Mn^2+]
effectiveness in maintaining type 1 PrP^Sc conformation (type 1 PrP^Sc [2]; FIG. 4c): only Ni^2+ can effectively substitute

[Cl][Ni][Cl] [Ni^2+]
effectiveness in maintaining type 1 PrP^Sc conformation (type 1 PrP^Sc [2]; FIG. 4c): can effectively substitute | induction of aggregation of Aβ protein (amyloid Aβ protein): also effective

[Cl-].[Cl-].[Zn+2] [Zn^2+]
effect of metal ion on electrophoretic mobility of metal-depleted, proteinase K digested type 1 PrP^Sc (type 1 PrP^Sc [2]): had no effect | digestion products of type 1 PrP^Sc washed in maintained presence of metal ion (type 1 PrP^Sc [2]): digestion products closely resembled those generated from untreated type 1 PrP^Sc | concentration at which type 1 PrP^Sc conformation could be readily maintained (type 1 PrP^Sc [2]): 10 µM | digestion products of type 2 PrP^Sc washed in maintained presence of metal ion (type 2 PrP^Sc): either the original type 2 pattern of digestion products, or a new pattern of higher molecular mass cleavage fragments closely similar to those generated from untreated type 1 PrP^Sc | induction of aggregation of Aβ protein (amyloid Aβ protein): able to induce aggregation of Aβ protein

O=S(=O)(O)c1ccc(-c2ccnc3c2ccc2c(-c4ccc(S(=O)(=O)O)cc4)ccnc23)cc1 [bathophenanthroline disulfonic acid]
ability of selective chelator to mirror the EDTA action on type 1 PrP^Sc cleavage (type 1 PrP^Sc [1]): unable to precisely mirror this action

O=C(O)c1cccc(C(=O)O)n1 [dipicolinic acid]
ability of selective chelator to mirror the EDTA action on type 1 PrP^Sc cleavage (type 1 PrP^Sc [1]): unable to precisely mirror this action

Cc1ccc2ccc3ccc(C)nc3c2n1 [neocuproine]
ability of selective chelator to mirror the EDTA action on type 1 PrP^Sc cleavage (type 1 PrP^Sc [1]): unable to precisely mirror this action

NCCNCCNCCN [triethylenetetramine]
ability of selective chelator to mirror the EDTA action on type 1 PrP^Sc cleavage (type 1 PrP^Sc [1]): unable to precisely mirror this action | cleavage pattern of type 1 PrP^Sc digested in presence of copper-selective chelator (type 1 PrP^Sc [1]): intermediate pattern

— patent US6887676B1 (priority 1999, dated 2005)
